Experimental data reported in PubChem BioAssay (NCI).
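Where inhibition never reached the appropriate level, the endpoint shown equals the highest concentration tested. Otherwise, values were interpolated linearly from a five-concentration, 48-hour dose response in 96-well plates. TGI denotes the concentration required for complete inhibition of growth.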

Columns and labels:
Experiment in all cases: NCI anticancer screen, dose series, 48 h
SNB-75 CNS = tested on: SNB-75 CNS
EKVX NSCLC = tested on: EKVX NSCLC
HCT-116 colon = tested on: HCT-116 colon
SF-295 CNS = tested on: SF-295 CNS
RPMI-8226 leukemia = tested on: RPMI-8226 leukemia
SK-MEL-5 melanoma = tested on: SK-MEL-5 melanoma
HT29 colon = tested on: HT29 colon
CCRF-CEM leukemia = tested on: CCRF-CEM leukemia
NCI-H226 lung = tested on: NCI-H226 lung
HOP-92 NSCLC = tested on: HOP-92 NSCLC
LXFL 529 NSCLC = tested on: LXFL 529 NSCLC
K-562 leukemia = tested on: K-562 leukemia
DMS 114 small cell lung = tested on: DMS 114 small cell lung
SNB-78 CNS = tested on: SNB-78 CNS
IGROV1 ovarian = tested on: IGROV1 ovarian
HCC-2998 colon = tested on: HCC-2998 colon
DMS 273 small cell lung = tested on: DMS 273 small cell lung
SN12C renal = tested on: SN12C renal
OVCAR-3 ovarian = tested on: OVCAR-3 ovarian
KM12 colon = tested on: KM12 colon
HL-60(TB) leukemia = tested on: HL-60(TB) leukemia
SW-620 colon = tested on: SW-620 colon
SK-MEL-28 melanoma = tested on: SK-MEL-28 melanoma
A498 renal = tested on: A498 renal
OVCAR-8 ovarian = tested on: OVCAR-8 ovarian
SF-268 CNS = tested on: SF-268 CNS
HOP-62 NSCLC = tested on: HOP-62 NSCLC
786-0 renal = tested on: 786-0 renal
NCI-H460 lung = tested on: NCI-H460 lung
TK-10 renal = tested on: TK-10 renal
LOX IMVI melanoma = tested on: LOX IMVI melanoma
M14 melanoma = tested on: M14 melanoma
DLD-1 colon = tested on: DLD-1 colon
SR leukemia = tested on: SR leukemia
MALME-3M melanoma = tested on: MALME-3M melanoma
OVCAR-4 ovarian = tested on: OVCAR-4 ovarian
UO-31 renal = tested on: UO-31 renal
SF-539 CNS = tested on: SF-539 CNS
UACC-257 melanoma = tested on: UACC-257 melanoma
NCI-H23 lung = tested on: NCI-H23 lung
MOLT-4 leukemia = tested on: MOLT-4 leukemia
A549 NSCLC = tested on: A549 NSCLC
SK-MEL-2 melanoma = tested on: SK-MEL-2 melanoma
HCT-15 colon = tested on: HCT-15 colon
OVCAR-5 ovarian = tested on: OVCAR-5 ovarian
SK-OV-3 ovarian = tested on: SK-OV-3 ovarian
CAKI-1 renal = tested on: CAKI-1 renal
M19-MEL melanoma = tested on: M19-MEL melanoma
SNB-19 CNS = tested on: SNB-19 CNS
KM20L2 colon = tested on: KM20L2 colon
HOP-18 NSCLC = tested on: HOP-18 NSCLC
NCI-H522 lung = tested on: NCI-H522 lung
ACHN renal = tested on: ACHN renal
UACC-62 melanoma = tested on: UACC-62 melanoma
U251 CNS = tested on: U251 CNS
COLO 205 colon = tested on: COLO 205 colon

Measured: TGI

O=C1OC2(c3ccccc3Oc3ccccc32)c2ccccc21
> 100 µM: all assays above
